# The supplement of paper PMC11451515
# Test system: P12-Ichikawa
# Assay: cell viability relative to DMSO control; higher = less cytotoxic
# Conditions: 48 h
# Method in brief: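 Viability values are per-plate percentages of DMSO wells, with background from cell-free wells. Library compounds in DMSO were pin-dosed, in an 11-point threefold series from 47 μM to 0.79 nM, onto NOMO1 or SEM (500 cells/well) or P12-Ichikawa (1000 cells/well) leukemia cells in 1536-well plates (5 μl). Those cells had been adapted for at least four passages in each medium, and CellTiter-Glo One luminescence was read after 48 h at 37°C.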
# [1] = HPLM + 10% dialyzed FBS, 0.000781 µM
# [2] = HPLM + 10% dialyzed FBS, 0.00234 µM
# [3] = HPLM + 10% dialyzed FBS, 0.00702 µM
# [4] = HPLM + 10% dialyzed FBS, 0.0211 µM
# [5] = HPLM + 10% dialyzed FBS, 0.0632 µM
# [6] = HPLM + 10% dialyzed FBS, 0.19 µM
# [7] = HPLM + 10% dialyzed FBS, 0.569 µM
# [8] = HPLM + 10% dialyzed FBS, 1.71 µM
# [9] = HPLM + 10% dialyzed FBS, 5.12 µM
# [10] = HPLM + 10% dialyzed FBS, 15.4 µM
# [11] = HPLM + 10% dialyzed FBS, 46.1 µM
# [12] = RPMI 5 mM glucose + 10% FBS, 0.000781 µM
# [13] = RPMI 5 mM glucose + 10% FBS, 0.00234 µM
# [14] = RPMI 5 mM glucose + 10% FBS, 0.00702 µM
# [15] = RPMI 5 mM glucose + 10% FBS, 0.0211 µM
# [16] = RPMI 5 mM glucose + 10% FBS, 0.0632 µM
# [17] = RPMI 5 mM glucose + 10% FBS, 0.19 µM
# [18] = RPMI 5 mM glucose + 10% FBS, 0.569 µM
# [19] = RPMI 5 mM glucose + 10% FBS, 1.71 µM
# [20] = RPMI 5 mM glucose + 10% FBS, 5.12 µM
# [21] = RPMI 5 mM glucose + 10% FBS, 15.4 µM
# [22] = RPMI 5 mM glucose + 10% FBS, 46.1 µM
# [23] = RPMI 5 mM glucose + 10% dialyzed FBS, 0.000781 µM
# [24] = RPMI 5 mM glucose + 10% dialyzed FBS, 0.00234 µM
# [25] = RPMI 5 mM glucose + 10% dialyzed FBS, 0.00702 µM
# [26] = RPMI 5 mM glucose + 10% dialyzed FBS, 0.0211 µM
# [27] = RPMI 5 mM glucose + 10% dialyzed FBS, 0.0632 µM
# [28] = RPMI 5 mM glucose + 10% dialyzed FBS, 0.19 µM
# [29] = RPMI 5 mM glucose + 10% dialyzed FBS, 0.569 µM
# [30] = RPMI 5 mM glucose + 10% dialyzed FBS, 1.71 µM
# [31] = RPMI 5 mM glucose + 10% dialyzed FBS, 5.12 µM
# [32] = RPMI 5 mM glucose + 10% dialyzed FBS, 15.4 µM
# [33] = RPMI 5 mM glucose + 10% dialyzed FBS, 46.1 µM
SMILES,cell viability [1],cell viability [2],cell viability [3],cell viability [4],cell viability [5],cell viability [6],cell viability [7],cell viability [8],cell viability [9],cell viability [10],cell viability [11],cell viability [12],cell viability [13],cell viability [14],cell viability [15],cell viability [16],cell viability [17],cell viability [18],cell viability [19],cell viability [20],cell viability [21],cell viability [22],cell viability [23],cell viability [24],cell viability [25],cell viability [26],cell viability [27],cell viability [28],cell viability [29],cell viability [30],cell viability [31],cell viability [32],cell viability [33]
CNC(=O)c1ccc2cc(C3(O)CCn4cncc43)ccc2c1 (stereo not given),123%,127%,115%,115%,119%,123%,102%,102%,108%,108%,114%,123%,127%,119%,127%,131%,125%,129%,122%,111%,133%,110%,126%,117%,121%,125%,118%,120%,110%,117%,107%,118%,105%
Cc1coc2c1C(=O)C(=O)c1c-2ccc2c(C)cccc12,–,–,–,–,–,–,–,–,–,–,–,120%,123%,107%,112%,128%,120%,114%,123%,111%,121%,115%,125%,116%,124%,117%,116%,112%,117%,109%,109%,103%,108%
O=C1c2ccccc2-[n+]2ccc3c([nH]c4ccccc43)c21,101%,108%,112%,105%,105%,106%,101%,105%,95.4%,2.96%,3.56%,98.1%,106%,105%,114%,104%,107%,107%,112%,101%,2.99%,2.29%,102%,115%,111%,108%,107%,111%,100%,113%,107%,3.39%,2.85%
COCC1(CO)C(=O)C2CCN1CC2 (stereo not given),90.6%,103%,105%,112%,108%,109%,85.3%,103%,81.9%,37.7%,4.42%,92.7%,109%,109%,110%,106%,117%,95.2%,104%,77.8%,53.6%,6.98%,103%,104%,109%,115%,107%,112%,96.4%,101%,81.8%,64.2%,23%
Cc1ccccc1C(=O)c1ccc(Nc2ccc(Br)cc2N)cc1Cl,117%,122%,119%,104%,114%,118%,114%,114%,105%,98.6%,51.5%,117%,122%,121%,110%,119%,108%,117%,113%,111%,108%,53.7%,117%,121%,127%,119%,122%,118%,117%,111%,105%,89%,35.5%
Cc1onc(-c2ccccc2Cl)c1C(=O)N[C@@H]1C(=O)N2[C@@H]1SC(C)(C)[C@@H]2C(=O)[O-],112%,116%,113%,116%,113%,113%,113%,111%,110%,105%,106%,119%,117%,113%,111%,116%,114%,116%,110%,117%,101%,101%,103%,111%,115%,119%,126%,109%,120%,105%,112%,98.4%,98.1%
C[C@](O)(CS(=O)(=O)c1ccc(F)cc1)C(=O)Nc1ccc(C#N)c(C(F)(F)F)c1,97.6%,115%,110%,120%,115%,115%,124%,119%,118%,114%,107%,104%,110%,112%,109%,111%,108%,114%,110%,126%,119%,105%,102%,118%,126%,130%,122%,120%,132%,120%,130%,113%,101%
Clc1ccc(-c2nc3sccn3c2/C=N/OCc2ccc(Cl)c(Cl)c2)cc1,114%,109%,107%,112%,108%,103%,104%,106%,101%,99.9%,98%,111%,113%,118%,102%,113%,108%,110%,110%,98.5%,96.5%,98.9%,114%,110%,101%,110%,110%,100%,102%,101%,91.3%,101%,102%
CN[C@H]1CCC2=CC(=C(OC)C(=C2C/3=C/C=C(OC)\C(=O)/C=C13)OC)OC,107%,113%,104%,12.9%,19.9%,11.1%,11.2%,8.53%,9.25%,7.37%,3.31%,113%,118%,102%,15.9%,22.2%,13.3%,9.95%,9.19%,7.3%,6.54%,2.29%,119%,118%,102%,21.1%,33.4%,19%,15.6%,11.3%,9.48%,8.81%,4.1%
O=C(Nc1cc(Cl)cc2c1[nH]c1cnccc12)c1cccnc1,116%,121%,123%,121%,121%,122%,127%,115%,121%,113%,106%,124%,118%,118%,129%,119%,116%,117%,118%,114%,114%,109%,–,–,–,–,–,–,–,–,–,–,–
COc1ccc([C@@H]2CC(=O)c3c(O)cc(O[C@@H]4O[C@H](CO[C@@H]5O[C@@H](C)[C@H](O)[C@@H](O)[C@H]5O)[C@@H](O)[C@H](O)[C@H]4O)cc3O2)cc1O,107%,109%,106%,114%,120%,124%,121%,118%,115%,114%,116%,94.2%,104%,109%,93.7%,107%,115%,111%,119%,110%,105%,103%,97.3%,117%,114%,111%,123%,116%,126%,119%,122%,111%,114%
Cc1nc2cnc3ccc(C#Cc4cccnc4)cc3c2n1-c1ccc(C(C)(C)C#N)cc1,84.7%,89.5%,86.4%,87.4%,63.2%,56%,58.4%,53.7%,54.2%,54.4%,41%,65.6%,84.1%,78.1%,88.3%,49.1%,43.5%,33.5%,43.7%,36.5%,40.6%,19.9%,71.8%,80.4%,77%,89.2%,53.6%,49.6%,36.4%,36.6%,33.7%,37.6%,24.2%
CCOC(=O)N1CCN(/[N+]([O-])=N/Oc2ccc([N+](=O)[O-])cc2C#N)CC1,97%,106%,108%,107%,106%,115%,113%,15.9%,9.82%,9.87%,9.31%,110%,115%,117%,110%,118%,115%,119%,12.1%,9.8%,8.38%,7.09%,103%,101%,105%,111%,113%,108%,108%,16.4%,10.6%,9.71%,9.91%
NC\1=N\C(=O)N(\C=C1)[C@@H]2O[C@H](CO)[C@@H](O)[C@@H]2O,26.1%,22.9%,9.22%,8.83%,4.99%,6.11%,6.14%,4.49%,3.27%,2.43%,0.778%,14.9%,15.4%,9.94%,5.41%,3.93%,3.94%,3.63%,2.08%,1.73%,1.04%,0.402%,20%,16.6%,11.1%,10.5%,7.45%,6.15%,7.46%,5.67%,3.34%,3.72%,1.87%
C[C@@H](Oc1cc(-c2cnn(C3CCNCC3)c2)cnc1N)c1c(Cl)ccc(F)c1Cl,118%,119%,115%,118%,115%,120%,111%,95.7%,90.6%,73.5%,18.9%,116%,118%,123%,116%,124%,117%,115%,113%,82.2%,68.9%,21.4%,–,–,–,–,–,–,–,–,–,–,–
CC[C@H](/C=C/[C@@H](C)[C@H]1CC[C@H]2[C@@H]3CC=C4C[C@@H](O)CC[C@]4(C)[C@H]3CC[C@]12C)C(C)C,100%,109%,94.3%,99.3%,104%,101%,99.5%,93.2%,87.7%,85.9%,87.5%,92.9%,94.3%,97.1%,95.9%,105%,96.3%,94.9%,91.3%,89.6%,83.9%,93.7%,92.7%,95.2%,93%,87.3%,91.8%,94.6%,88.4%,87.8%,87%,85.2%,86.6%
